Consider one molecule from patent publication US9969699B2, “Cancer cell growth inhibitor, anticancer agent, and method for screening same, as well as novel compound” (Microbial Chemistry Research Foundation, priority 2014, dated 2018).

A word on the IC50: it is the concentration that gives 50% inhibition.

The test system of test [1] is NIH3T3 cells. Description: 2D cell culture step (environment with adhesion scaffold), proliferation of NIH3T3 cells. Type of test: cell-based. Particulars: Mus musculus, 72 h; NIH3T3 cells, TC-treated plate, 3 days, […]-GLO; read-out: IC50 2D cell culture step. As for the experimental part: Note that, as a negative control, the NIH3T3 cells at 2×10^3 cells/100 were seeded to the same plate in a volume of 100 μL per well and cultured at 37° C. in the presence of 5% CO2 for 3 days without the addition of the test substance.
Note that, Dulbecco's Modified Eagle Medium supplemented with 5% FBS was used for the culture.
A cell proliferation inhibition rate in the 2D cell culture step was calculated according to (Expression 2) below. Cell proliferation inhibition rate(%)=(1−D/E)×100 (Expression 2)
In the (Expression 2), D denotes the number of viable NIH3T3 cells when the test substance was added, and E denotes the number of viable NIH3T3 cells when the test substance was not added.

Test [2] deals with U251 cells. The test can be described thus: 3D cell culture step, EGFR vIII gene non-expressing brain tumor cells U251. Type of test: cell-based. Particulars: Test Example 3, U251 cells. As to the method:
(§1) The following 3 brain tumor cells were used as the EGFR vIII gene non-expressing cells. • U251 cells (available from ATCC) • U87MG cells (available from ATCC) • KS-1 cells (available from ATCC) <3D Cell Culture Step>
(§2) After the 3 days of culture, the number of viable cells was counted by […]-GLO (trademark) Luminescent Cell Viability Assay (available from Promega), which was a method for quantitating ATP in viable cells. A cell proliferation inhibition rate in the 3D cell culture step was calculated according to (Expression 3) below. Cell proliferation inhibition rate(%)=(1−X/Y)×100 (Expression 3)
(§3) In the (Expression 3), X denotes the number of viable cells when the test substance was added, and Y denotes the number of viable cells when the test substance was not added.

For test [3], the system named is U87MG cells. The test can be described thus: 3D cell culture step, EGFR vIII gene non-expressing brain tumor cells U87MG. Type of test: cell-based. Particulars: Test Example 3, U87MG cells. As for the experimental part:
as §1, §2, §3

For test [4], the system named is NIH3T3/EGFRWT cells. Description: 3D cell culture step, NIH3T3/EGFRWT cells in EGF-including medium. The format is cell-based, mouse. Particulars: Test Example 3, NIH3T3/EGFRWT cells, EGF-including medium. As for the experimental part: as §2, §3
The subject of test [5] is KS-1 cells. Description: 3D cell culture step, EGFR vIII gene non-expressing brain tumor cells KS-1. The format is cell-based. Particulars: Test Example 3, KS-1 cells. As to the method: as §1, §2, §3
In test [6] the test system is NIH3T3/EGFR vIII cells. The test can be described thus: 3D cell culture step (environment without adhesion scaffold), proliferation of NIH3T3/EGFR vIII cells. Type of test: cell-based, mouse.

For the molecule `COc1cc2ncnc(Nc3cccc(Cl)c3)c2cc1OC` [AG1478, reference compound], the IC50 came to 50 µM in test [1] and 1 µM in test [6] (Mus musculus, 72 h, NIH3T3/EGFR vIII cells, Ultra Low Attachment plate, 3 days, […]-GLO). Also, the “inhibiting activity against scaffold-independent proliferation capacity” value in test [2] is “did not exhibit an inhibiting activity”; in test [3], “did not exhibit an inhibiting activity”; in test [4], “exhibited an inhibiting activity”; in test [5], “did not exhibit an inhibiting activity”; in test [6] (Test Example 3, NIH3T3/EGFR vIII cells), “exhibited an inhibiting activity”. Moreover, the “inhibition of proliferation of NIH3T3 cells expressing EGFR mutant vIII in the 3D cell culture step” value in test [6] (result in words from Table 1) is “inhibited proliferation”.
